Consider one molecule from paper PMC11544189 (Acta Pharmaceutica Sinica. B, 2024).

This assay relates to σ1 receptor. Description: σ[…] protein/BiP dissociation assay. Type of assay: cell-based.

`CSC(=S)NCCNC(=O)CCC(=O)Nc1cccc2ccccc12` [Amylovis-201, Methyl (2-{[4-(1-naphthylamino)-4-oxobutanoyl]amino}ethyl)dithiocarbamate] registered an IC50 of 362 nM.
